Test results from patent US20210332036A1, “PYRIMIDINE AND PYRAZINE HDAC1,2 INHIBITORS” (REGENACY PHARMACEUTICALS, LLC, priority 2018, published 2021).

Key:
[1] = PK parameters, IV dosing (plasma and brain exposure); format: in vivo; set-up: AUC(0-t): concentration or dose not given beside the values; conditions: Mouse IV; for Kp: brain/plasma, read-out: Brain AUC/Plasma AUC
Description: [The procedure below names another organism; the source lists this organism under the same test.] Male SD rats were fasted overnight. Compounds of the invention were dissolved in dimethyl acetamide at 10 times the final concentration, then Solutol HS 15 (BASF) was added to a final concentration of 10%. Finally 80% saline was added and vortexed to achieve a clear solution. For the IV dosing three animals were injected via the foot dorsal vein with 1 mg/kg compound. For the PO dosing 5 mg/kg of compound was delivered by oral gavage. Blood was collected via the tail vein into K2EDTA tubes at 5 minutes, 15 minutes, 30 minutes, 1 hour, 2 hours, 4 hours, 8 hours and 24 hours after dosing. The blood was centrifuged at 2000 g for 5 minutes at 4° C. to obtain plasma. The plasma was extracted with acetonitrile and the level of compound was analyzed by LC/MS/MS. The level of compound in plasma was calculated from a standard curve in rat plasma. The IV clearance (L/h/kg) and area under the curve (h*ng/mL) were calculated using WinNonLin software. The dose adjusted area under the curve for the IV and oral dosing were used to calculate the oral bioavailability.
Pharmacokinetic properties were assessed in a rat cassette dosing experiment. The IV clearance (IV Clr.) is in units of L/hr/kg. The oral maximum plasma concentration (PO Cmax) is in units of ng/ml. The oral plasma half-life (PO T1/2) is in units of hours. The oral area under the curve (PO AUC) is in units of hours*ng/ml. The fraction absorbed by the oral route (F %) is a percentage of the oral area under the curve to the IV area under the curve, dose adjusted.

[2] = PK parameters, IP dosing (plasma and brain exposure); format: in vivo; set-up: AUC(0-t): concentration or dose not given beside the values; conditions: Mouse IP; for Kp: brain/plasma, read-out: Brain AUC/Plasma AUC
[3] = target: T1, HDAC1 (Homo sapiens, UniProt Q13547); test: HDAC enzyme assay, HDAC1; format: biochemical; conditions: 16 μM substrate, 10 min preincubation
T1 construct: purchased BPS Biosciences
T1 sequence (Q13547 whole entry): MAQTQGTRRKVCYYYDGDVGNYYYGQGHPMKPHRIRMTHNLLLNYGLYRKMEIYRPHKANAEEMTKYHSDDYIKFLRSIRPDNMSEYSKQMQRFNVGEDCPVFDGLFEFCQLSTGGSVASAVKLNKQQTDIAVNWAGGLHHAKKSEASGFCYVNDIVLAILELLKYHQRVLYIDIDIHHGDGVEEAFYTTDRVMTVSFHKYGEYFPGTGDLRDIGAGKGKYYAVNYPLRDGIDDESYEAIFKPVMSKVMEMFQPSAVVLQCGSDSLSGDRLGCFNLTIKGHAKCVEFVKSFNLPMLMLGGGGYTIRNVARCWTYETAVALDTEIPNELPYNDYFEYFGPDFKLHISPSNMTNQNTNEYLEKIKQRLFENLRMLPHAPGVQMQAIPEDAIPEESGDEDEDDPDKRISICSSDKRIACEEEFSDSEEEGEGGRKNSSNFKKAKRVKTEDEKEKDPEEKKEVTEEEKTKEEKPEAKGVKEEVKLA
Description: (§1) Compounds for testing were diluted in DMSO to 50 fold the final concentration and a ten-point three-fold dilution series was made. The compounds were diluted in assay buffer (50 mM HEPES, pH 7.4, 100 mM KCl, 0.001% Tween-20, 0.05% BSA, 20 μM TCEP) to 6-fold their final concentration. The HDAC enzymes (purchased from BPS Biosciences) were diluted to 1.5-fold their final concentration in assay buffer. The tripeptide substrate and trypsin at 0.05 μM final concentration were diluted in assay buffer at 6-fold their final concentration. The final enzyme concentrations used in these assays were 3.3 ng/ml (HDAC1), 0.2 ng/ml (HDAC2) and 0.08 ng/ml (HDAC3). The final substrate concentrations used were 16 μM (HDAC1), 10 μM (HDAC2) and 17 μM (HDAC3).
(§2) Five μl of compounds and 20 μl of enzyme were added to wells of a black, opaque 384 well plate in duplicate. Enzyme and compound were incubated together at room temperature for 10 minutes. Five μl of substrate was added to each well, the plate was shaken for 60 seconds and placed into a Victor 2 microtiter plate reader. The development of fluorescence was monitored for 60 min and the linear rate of the reaction was calculated. The IC50 was determined using Graph Pad Prism by a four parameter curve fit.

[4] = target: T2, HDAC2 (Homo sapiens, UniProt Q92769); test: HDAC enzyme assay, HDAC2; format: biochemical; conditions: 10 μM substrate, 10 min preincubation
T2 construct: purchased BPS Biosciences
T2 sequence (Q92769 whole entry): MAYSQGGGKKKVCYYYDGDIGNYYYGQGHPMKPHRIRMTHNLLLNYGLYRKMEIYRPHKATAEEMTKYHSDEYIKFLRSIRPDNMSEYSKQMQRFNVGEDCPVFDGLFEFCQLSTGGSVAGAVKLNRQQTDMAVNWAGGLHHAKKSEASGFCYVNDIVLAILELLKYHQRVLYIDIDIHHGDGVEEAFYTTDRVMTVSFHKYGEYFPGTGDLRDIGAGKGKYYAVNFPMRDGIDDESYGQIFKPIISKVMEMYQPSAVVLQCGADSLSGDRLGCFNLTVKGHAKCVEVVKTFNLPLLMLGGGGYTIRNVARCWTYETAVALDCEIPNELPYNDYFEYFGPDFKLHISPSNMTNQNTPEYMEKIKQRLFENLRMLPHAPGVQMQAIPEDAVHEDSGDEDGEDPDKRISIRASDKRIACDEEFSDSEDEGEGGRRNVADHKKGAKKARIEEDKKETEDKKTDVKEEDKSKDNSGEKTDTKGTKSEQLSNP
Description: as §1, §2

[5] = target: T3, HDAC3 (Homo sapiens, UniProt O15379); test: HDAC enzyme assay, HDAC3; format: biochemical; conditions: 17 μM substrate, 10 min preincubation
T3 construct: purchased BPS Biosciences
T3 sequence (O15379 whole entry): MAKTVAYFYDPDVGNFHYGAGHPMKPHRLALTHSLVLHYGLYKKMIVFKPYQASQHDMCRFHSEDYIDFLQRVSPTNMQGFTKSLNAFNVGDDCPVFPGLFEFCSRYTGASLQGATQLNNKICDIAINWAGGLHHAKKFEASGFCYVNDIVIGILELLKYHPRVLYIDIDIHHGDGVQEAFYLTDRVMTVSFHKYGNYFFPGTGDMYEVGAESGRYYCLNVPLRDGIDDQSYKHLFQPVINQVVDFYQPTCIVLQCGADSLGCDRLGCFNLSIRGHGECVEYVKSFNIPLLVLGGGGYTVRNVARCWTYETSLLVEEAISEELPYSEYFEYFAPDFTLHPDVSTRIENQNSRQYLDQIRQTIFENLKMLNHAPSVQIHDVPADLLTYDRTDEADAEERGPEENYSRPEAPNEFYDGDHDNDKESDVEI
T3 sequence (Q9Y618 395-489 partner limits assumed): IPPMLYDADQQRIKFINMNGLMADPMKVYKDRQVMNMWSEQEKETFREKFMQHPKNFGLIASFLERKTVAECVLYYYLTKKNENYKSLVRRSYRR
Description: as §1, §2

[6] = brain, read-out: AUC(last) Brain
[7] = plasma, read-out: AUC(last) Plasma

Row | SMILES | AUC(0-t) [1, 6] | AUC(0-t) [1, 7] | Kp [1] | AUC(0-t) [2, 6] | AUC(0-t) [2, 7] | Kp [2] | IC50 [3] | IC50 [4] | IC50 [5]
1 | CN1CCN(c2cnc(C(=O)Nc3cc(-c4cccs4)ccc3N)nc2)CC1 [Compound 006] | 700 to 800 ng·h/mL | 200 to 300 ng·h/mL | 2 to 4 | 700 to 800 ng·h/mL | 800 to 900 ng·h/mL | 0.1 to 1.5 | 1 to 10 nM | 40 to 50 nM | 80 to 90 nM
2 | CNS(=O)(=O)Oc1ccc(-c2ccc(N)c(NC(=O)c3ccc(N4CCN(C)CC4)cn3)c2)cc1 [Compound 011] | 100 to 200 ng·h/mL | 200 to 300 ng·h/mL | 0.1 to 1.5 | < 100 ng·h/mL | 900 to 1000 ng·h/mL | 0.1 to 1.5 | 1 to 10 nM | 10 to 20 nM | > 2000 nM
3 | Nc1ccc(-c2ccccc2)cc1NC(=O)c1ncc(NCCOCc2cccnc2)cn1 [Compound 016] | < 100 ng·h/mL | 300 to 400 ng·h/mL | 0.01 to 0.1 | < 100 ng·h/mL | 900 to 1000 ng·h/mL | 0.001 to 0.01 | 1 to 10 nM | 30 to 40 nM | 230 to 240 nM
4 | Nc1ccc(-c2cccs2)cc1NC(=O)c1ncc(N2CCNCC2)cn1 [Compound 007] | 30 to 40 ng·h/mL | 400 to 500 ng·h/mL | 0.01 to 0.1 | 900 to 1000 ng·h/mL | 1800 to 1900 ng·h/mL | 0.1 to 1.5 | 10 to 20 nM | 90 to 100 nM | 170 to 180 nM
5 | Nc1ccc(-c2cccs2)cc1NC(=O)c1ccc(OC[C@H](O)CO)cn1 [Compound 013] | 200 to 300 ng·h/mL | 1100 to 1200 ng·h/mL | 0.1 to 0.3 | 300 to 400 ng·h/mL | 5900 to 6000 ng·h/mL | 0.01 to 0.1 | 1 to 10 nM | 20 to 30 nM | 140 to 150 nM
6 | Cc1ccc(-c2ccc(N)c(NC(=O)c3ccc(N4CCNCC4)cn3)c2)cc1 [Compound 001] | 19000 to 20000 ng·h/mL | 1400 to 1500 ng·h/mL | 10 to 15 | 64700 to 64800 ng·h/mL | 6700 to 6800 ng·h/mL | 1 to 5 | 10 to 20 nM | 30 to 40 nM | 480 to 490 nM
7 | Nc1ccc(-c2cccs2)cc1NC(=O)c1ccc(OCCO)cn1 [Compound 005] | 600 to 700 ng·h/mL | 600 to 700 ng·h/mL | 0.8 to 1.2 | 2000 to 2100 ng·h/mL | 2300 to 2400 ng·h/mL | 0.1 to 1.5 | 1 to 10 nM | 10 to 20 nM | 110 to 120 nM
8 | Nc1ccc(-c2cncs2)cc1NC(=O)c1ccc(N2CCNCC2)cn1 [Compound 012] | 400 to 500 ng·h/mL | 800 to 900 ng·h/mL | 0.1 to 1.5 | 300 to 400 ng·h/mL | 4300 to 4400 ng·h/mL | 0.01 to 0.1 | 1 to 10 nM | 10 to 20 nM | 20 to 30 nM
9 | Nc1ccc(-c2ccoc2)cc1NC(=O)c1ncc(N2CCNCC2)cn1 [Compound 015] | 100 to 200 ng·h/mL | 500 to 600 ng·h/mL | 0.1 to 1.5 | < 100 ng·h/mL | 3200 to 3300 ng·h/mL | 0.01 to 0.1 | 10 to 20 nM | 30 to 40 nM | 110 to 120 nM
10 | Nc1ccc(-c2cccs2)cc1NC(=O)c1ccc(NC2CCN(C(=O)N3CCNCC3)CC2)cn1 [Compound 014] | 100 to 200 ng·h/mL | 1500 to 1600 ng·h/mL | 0.05 to 0.1 | 200 to 300 ng·h/mL | 7400 to 7500 ng·h/mL | 0.01 to 0.1 | 1 to 10 nM | 10 to 20 nM | 50 to 60 nM
11 | Nc1ccc(-c2ccccc2)cc1NC(=O)c1ccc(N2CCNCC2)nn1 [Compound 003] | 3000 to 4000 ng·h/mL | 1000 to 1100 ng·h/mL | 1 to 5 | 7900 to 8000 ng·h/mL | 4700 to 4800 ng·h/mL | 1 to 5 | 1 to 10 nM | 20 to 30 nM | 170 to 180 nM
12 | Nc1ccc(-c2cccs2)cc1NC(=O)c1cnc(N2CCNCC2)cn1 [Compound 017] | 9000 to 10000 ng·h/mL | 600 to 700 ng·h/mL | – | 25000 to 25300 ng·h/mL | 2700 to 2800 ng·h/mL | – | 1 to 10 nM | 5 to 15 nM | 30 to 40 nM
13 | COCCOc1ccc(C(=O)Nc2cc(-c3cccs3)ccc2N)nc1 [Compound 004] | 500 to 600 ng·h/mL | 700 to 800 ng·h/mL | 0.1 to 1.5 | 2100 to 2200 ng·h/mL | 2300 to 2400 ng·h/mL | 0.1 to 1.5 | 1 to 10 nM | 50 to 60 nM | 440 to 450 nM
14 | COCCOc1ccc(C(=O)Nc2cc(-c3cccs3)ccc2N)nn1 [Compound 008] | 200 to 300 ng·h/mL | 600 to 700 ng·h/mL | 0.1 to 1.5 | 1300 to 1400 ng·h/mL | 2900 to 3000 ng·h/mL | 0.1 to 1.5 | 1 to 10 nM | 20 to 30 nM | 260 to 270 nM
15 | CC(=O)N1CCN(c2ccc(C(=O)Nc3cc(-c4cccs4)ccc3N)nc2)CC1 [Compound 010] | 200 to 300 ng·h/mL | 500 to 600 ng·h/mL | 0.1 to 1.5 | 200 to 300 ng·h/mL | 2000 to 2100 ng·h/mL | 0.1 to 1.5 | 1 to 10 nM | 10 to 20 nM | 120 to 130 nM
16 | Nc1cc(F)c(-c2cccs2)cc1NC(=O)c1ccc(N2CCNCC2)cn1 [Compound 002] | 9000 to 10000 ng·h/mL | 400 to 500 ng·h/mL | 20 to 25 | 23100 to 23200 ng·h/mL | 2400 to 2500 ng·h/mL | 5 to 10 | 1 to 10 nM | 10 to 20 nM | 200 to 210 nM
17 | Nc1ccc(-c2ccccc2)cc1NC(=O)c1ncc(N2CCNCC2)cn1 [Compound 009] | 300 to 400 ng·h/mL | 300 to 400 ng·h/mL | 0.8 to 1.5 | 200 to 300 ng·h/mL | 1700 to 1800 ng·h/mL | 0.1 to 1.5 | 10 to 20 nM | 70 to 80 nM | 200 to 210 nM
